From patent US20240208998A1, “COMPOUNDS FOR USE IN THE TREATMENT OF HYPERPROLIFERATIVE DISORDERS” (FUNDACIÓ PRIVADA INSTITUT D'INVESTIGACIÓ ONCOLÓGICA DE VALL …, priority 2021, published 2024) come the findings set out here.

One data set deals with human TET2 construct (Homo sapiens, UniProt Q6N021, A1837G/A1840G/D1704G/D1842G/DEL1471-1702/DEL1708-1833/E1841G/F1706G/N1843S/Q1834G/V1836G). The data set can be described thus: Determination of TET2 binding by Surface Plasmon Resonance. The settings on record: SPR, Biacore T200, 25° C., steady state fit to single site interaction model. The protocol: The human methylcytosine dioxygenase TET2 construct used (1129-2002 with residues 1471-1843 replaced by a 15-residue GS-linker) was expressed in a pET-28a(+)psumo vector with kanamycin resistance and an N-terminal His6 tag, and cloned in Rosetta D3 Escherichia coli competent cells. Transformed cells were cultured overnight in 10 mL of LB media supplied with kanamycin (50 μg/mL), then scaled to 1 L LB medium supplied with kanamycin (50 μg/mL) and grown at 37° C. Once the optical density (OD600) achieved 0.8, protein expression was induced with 0.4 mM isopropyl-β-thiogalactopyranoside (IPTG) overnight at 18° C. Cells were harvested by centrifugation (8,000 rpm, 4° C., 30 min) and the pellet obtained was resuspended in 15 mL of buffer A (50 mM Hepes, 150 mM NaCl, 30 mM imidazole, 2 mM β-mercaptoethanol (pH 8.0) supplemented with Pierce protease inhibitor cocktail (ThermoFisher Scientific)) and lysed by sonication (1 min 40 s: 10 cycles×10 s ON, 30 s OFF, A=35%, T=19° C.) followed by two consecutive centrifugations (8,000 rpm, 4° C., 30 min) to clarify the lysate.
The TET2 protein was purified using an AKTA Start system (GE Healthcare, Uppsala, Sweden) by two-step purification procedure: one His-affinity chromatography followed by a size exclusion chromatography. First, the protein fraction obtained during the lysis (supernatant) was applied to a 5 mL HisTrap HP column (GE Healthcare), washed with buffer A (50 mM Hepes, 150 mM NaCl, 30 mM imidazole, 2 mM […] (pH 8.0)) and the bound protein was eluted with buffer B (50 mM Hepes, 150 mM NaCl, 250 mM imidazole, 2 mM β-mercaptoethanol (pH 8.0)). The eluted protein-containing fractions were pooled and concentrated up to 4 mL for the last purification step: a size exclusion chromatography (HiPrep 16/60 Sephacryl S-100 HR) in 50 mM Hepes, 150 mM NaCl, 2 mM β-mercaptoethanol (pH 8.0). Finally, the mass and purity of the protein were verified by SDS-electrophoresis and mass spectrometry.
The binding of compounds of the examples was determined by Surface Plasmon Resonance (SPR) using a Biacore T200 SPR biosensor instrument (GE Healthcare, Uppsala, Sweden) at 25° C. The human TET2 construct was immobilized on a CM5 sensor chip using a standard covalent immobilization via amine coupling following the activation of the carboxymethyl dextran matrix of the sensor chip (injection of a solution containing 0.1 M N-hydroxysuccinimide and 0.4 M 1-ethyl-3-[3-(dimethylamino)propyl]carbodiimide hydrochloride at a flow rate of 15 μL/min for 7 min). The protein immobilization was achieved after the injection of 5 μg/mL TET2 in 10 mM sodium acetate (pH 4.0) at a flow rate of 5 μL/min. Unreacted activated groups of the dextran matrix were deactivated by injection of 1 M ethanolamine hydrochloride for 7 min at a flow rate of 15 μL/min. The corresponding matrix activation and protein immobilization were performed using as a running buffer a phosphate buffered saline solution (1.05× PBS: 10 mM phosphate, pH 7.4, 150 mM NaCl). The screened compounds were prepared in a 20 mM stock solution in DMSO and diluted with 1.05× PBS to achieve a final 5% (v/v) DMSO concentration. The running buffer of the interaction assays consisted of 1×PBS, 5% (v/v) DMSO. The flow rate used for the screening was 60 μL/min and the ligand association and dissociation times set were 60 s and 120 s, respectively.
For data analysis the software used was the Biacore T200 Evaluation software. Different corrections were applied. First, the nonspecific binding to the chip surface and the baseline drift were corrected subtracting the signals of a reference surface (where the immobilization procedure was carried out without proteins) to the signals obtained on the TET2 surface. Second, a series of solvent standards (solvent correction) were introduced to remove the differences derived from the DMSO. Finally, the background was corrected subtracting blank injections (blank subtraction) to the injected compound signals.

For the next data set, the system named is HL60 cell line. Nature of the data set: Antiproliferative activity on HL60 cell line (CellTiter-Glo). It counts as cell-based. The settings on record: Homo sapiens, HL-60; HL60, 72 h of treatment. The procedure:
The human leukaemic cell line HL60 was grown in suspension in RPMI 1640 medium containing 10% (v/v) FBS and 1% (v/v) P/S (Life Technologies). […] Leukaemia cells were suspended at a density of 2×10^5 cells/mL in complete RPMI 1640 medium and 25 μL were seeded in each well (5×10^3 final total cells/well). A 10 μM solution of the compounds of examples 1, 12 and 21, and a 25 μM solution of all other compounds were prepared in complete medium, and then serially diluted (1:2) (as specified in Table 3 below). A solution of complete medium with DMSO was used as a vehicle control.
Twenty-five microliters of each serially diluted compound solution were added to the corresponding wells of the plate (50 μL of final volume/well). After 48 h of treatment, 50 μL of fresh 2X serially diluted compound solution was added to their corresponding wells (100 μL of final volume/well). After twenty-four additional hours, an equal volume (100 μL) of CellTiter-Glo Reagent (Promega) was added to each well, plates were shaken during 2 min and incubated at rt for 10 min. Luminescence was recorded using a Spark multimode microplate reader and an integration time of 1 s per well.

The subject of the next data set is T98G (glioblastoma). The data set can be described thus: Antiproliferative activity on other tumour cell lines (CellTiter-Glo): T98G. It counts as cell-based. The following applies: Homo sapiens, 72 h of treatment. The protocol:
(§1) Other human adherent cancer cell lines were cultured in their corresponding cell medium (as specified in Table 4) supplemented with 10% FBS (v/v) and 1% P/S (v/v). Twenty-four hours prior to treatment with the compounds to be tested (Examples 1, 12 and 21), the cells were seeded in 96-well plates at different densities depending of the cell line (as specified in Table 4).
(§2) Depending on the cell line, a 50, 125 or 250 μM solution of the compounds of examples 1, 12 and 21 were prepared in complete medium, and then serially diluted (1:2) (Table 5). A solution of complete medium with DMSO was used as a vehicle control.
(§3) Fifty microliters of each serially diluted compound solution was added by medium replacement in two wells (by duplicate). After 48 h of treatment, 50 μL of fresh 2X serially diluted compound solution was added to the corresponding wells of the plate (100 μL of final volume/well). After twenty-four additional hours (a total of 72 h of treatment), an equal volume (100 μL) of CellTiter-Glo Reagent (Promega) was added to each well, plates were shaken during 2 min and incubated at rt for 10 min. Luminescence was recorded using a Spark multimode microplate reader and an integration time of 1 s per well.

Another data set has as its system HCT116 (colon). Nature of the data set: Antiproliferative activity on other tumour cell lines (CellTiter-Glo): HCT116. It counts as cell-based. The following applies: Homo sapiens; HCT 116, 72 h of treatment. The procedure: as §1, §2, §3

`Cc1[nH]c2ccccc2c1-c1nc(NC(=O)Cc2cn3ccsc3n2)sc1C` [Example 4, 2-(imidazo[2,1-b]thiazol-6-yl)-N-[5-methyl-4-(2-methyl-1H-indol-3-yl)thiazol-2-yl]acetamide] showed a melting point of 169 to 172 °C. This compound also yielded a Kd on human TET2 construct of 12 µM. Also, it took 2.3 µM to reach a half-maximal effect in the data set on HL60 cell line (EC50).

As for `Cc1[nH]c2ccccc2c1-c1csc(NC(=O)Cc2c[nH]c3ccc(F)cc23)n1` [Example 12, 2-(5-fluoro-1H-indol-3-yl)-N-[4-(2-methyl-1H-indol-3-yl)thiazol-2-yl]acetamide], the melting point is 230 to 232 °C. The compound also registered a Kd at human TET2 construct of 6 µM. In the data set on HL60 cell line, the midpoint of the response, the EC50, lay at 0.497 µM. Besides, the EC50 with T98G (glioblastoma) is 23.1 µM. In addition, in the data set with HCT116 (colon), the EC50 was 6.8 µM.

The compound `Cc1[nH]c2ccccc2c1-c1csc(NC(=O)Cc2c[nH]c3ccccc23)n1` [Example 13, 2-(1H-indol-3-yl)-N-[4-(2-methyl-1H-indol-3-yl)thiazol-2-yl]acetamide] came in with a melting point of 246 to 248 °C. On human TET2 construct, this compound gave a Kd of 14 µM. Further, the EC50 with HL60 cell line is 1.4 µM.

`Cc1[nH]c2ccccc2c1-c1csc(NC(=O)Cc2cc(Br)cs2)n1` [Example 19, 2-(4-bromothiophen-2-yl)-N-[4-(2-methyl-1H-indol-3-yl)thiazol-2-yl]acetamide] had a melting point of 212 to 214 °C. At human TET2 construct, this compound had a Kd of 1 µM. Also, in the data set on HL60 cell line, a half-maximal effect (EC50) was put at 0.809 µM.

`Cc1[nH]c2ccccc2c1-c1csc(NC(=O)Cc2c[nH]c3ccc(O)cc23)n1` [Example 21, 2-(5-hydroxy-1H-indol-3-yl)-N-[4-(2-methyl-1H-indol-3-yl)thiazol-2-yl]acetamide] returned a melting point of 145 to 149 °C. On human TET2 construct, this compound came in with an equilibrium dissociation constant (Kd) of 7 µM. A half-maximal effect in the data set on HL60 cell line (EC50) was put at 0.063 µM. This compound had an EC50 in the data set with T98G (glioblastoma) of 11.4 µM. Also, in the data set with HCT116 (colon), the EC50 came to 16.4 µM.
